# From PubChem BioAssay AID1949 (Southern Research Institute, 2009)
# Results filed as inconclusive are left out.
# Test system: M. tuberculosis H37Rv growth inhibition
# Assay: Mycobacterium tuberculosis H37Rv growth inhibition, cell based, confirmatory dose response (AID 1949);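 further: bacteria grown 7 days with compound before Alamar blue readout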
row,SMILES,IC50 [µg/mL]
1,O=C(C1CCCN1S(=O)(=O)c1ccc(Cl)cc1)N1CCOCC1 (stereo not given),20
2,COc1cc(NC(=O)C(Cl)Cl)c(OC)cc1Cl,2.68
3,Cc1ccc2nsnc2c1S(=O)(=O)Nc1cccc2cccnc12,0.31
4,CC1CC(C)CN(C(=O)Nc2ccc(Cl)c(Cl)c2)C1 (stereo not given),1.21
5,CC(=O)C1=C(C)NC(SCC(=O)Nc2nc3ccccc3s2)=C(C#N)C1c1ccc(Cl)cc1 (stereo not given),4.1
6,Cc1cc(OC(=O)C2CC2)c2c3c(c(=O)oc2c1)CCCC3,1.44
7,Clc1ccc(-c2csc(-c3cccnc3)n2)cc1,5.82
8,Cc1ccc(NC(=O)C(=O)NNC(=O)c2ccco2)cc1Cl,1.41
9,COc1ccc(Nc2ccnc3cc4ccccc4cc23)cc1,0.74
10,COc1nc(SC)nc2sc3c(c12)CCC3,1.47
11,O=[N+]([O-])c1ccc(NCCNc2nc(N3CCCC3)nc3ccccc23)cc1,1.06
12,COc1cccc(CSc2nc3c(c(-c4ccccc4)c2C#N)CN(C)CC3)c1,22.8
13,CCn1cc(C(=O)O)c(=O)c2cc(F)c(N3CCN(C(=S)NC)CC3)cc21,11.8
14,COc1ccc(C(=O)C(CN2CCCCC2)c2ccccc2)cc1 (stereo not given),3.15
15,COC(=O)c1sccc1NC(=O)c1c(F)c(F)c(F)c(F)c1F,0.21
